# Data: paper PMC7513592 (RSC Medicinal Chemistry, 2020)
# Entries after “also recorded” stand apart in the source; their conditions may differ.
# Legend:
# [1] = biological target: T1, hERG (Homo sapiens, UniProt Q12809); experiment: In vitro polypharmacology (Eurofins Cerep): hERG
# T1 construct: Eurofins Cerep SA, France (contract testing)
# Description: Fig. 8 In vitro polypharmacology for selected targets of 1 (blue diamonds) and 39 (red diamonds). Data are shown for each replicate (n = 2). The data for 1 were extracted from [ref. 17]. The experiments were conducted by Eurofins Cerep SA, France.
# We also characterized the off-targets predicted to be potentially problematic for both compounds using the web-based target prediction tool PPB2.[41]
# [2] = tested on: SKOV3, T47D, MCF-7, MDA-MB-231, HEK293 and HEK-hTRPV6 cells; experiment: Antiproliferative activity, XTT, all six cell lines; format: cell-based, human; conditions: 6 days, up to 100 µM
# Text: Here, we compared the effects of 1 and 39 on SKOV3 and T47D, as well as on MCF-7 and MDA-MB-231 as two additional breast cancer cell lines with low levels of TRPV6.[13],[44] Previous studies have shown that RNA silencing (siRNA) of TRPV6 reduces T47D cell proliferation.[11],[13]
# Note that HEK-hTRPV6 was more susceptible to 1 toxicity than HEK293 wt cells, which might be related to the fact that HEK-hTRPV6 overexpressing cells proliferate faster than HEK293 wt cells in a Ca^2+-dependent manner (Table S3 ^†).[46] […] This highlights the need for future studies to uncover the precise role of TRPV6 in cancer progression.
# 12. Antiproliferative activity
# Unless specified cell culture reagents were obtained from Gibco, Life Technology, Switzerland. MCF -7 (human mammary adenocarcinoma), MDA-MB-231 (human mammary adenocarcinoma) were obtained from the ATCC cell bank. T47D (human mammary ductal carcinoma) cell line was obtained from NIH cell collection. These cells were grown in RPMI medium complemented with 10% FBS, 2mM L-Glutamine, 100 U/ml Penicillin and 100 μg/ml Streptomycin (Sigma) and 1% non-essential amino acids (Bioconcept, Switzerland). HEK293 (human embryonic kidney) and SKOV-3 (human ovary adenocarcinoma) cell lines were obtained from the ATCC cell bank. HEK-hTRPV6 and HEK293 and SKOV-3 were grown in DMEM medium supplemented with 10% FBS, 2mM L-Glutamine, 100 U/ml Penicillin and 100 μg/ml Streptomycin (Sigma) and 1% non-essential amino acids (Bioconcept, Switzerland).
# The XTT assay was used to evaluate cell proliferation. Cells were plated at a density of 5 x 10^3 cells/well in 96-well plates and were incubated at 37 °C for 24 h. On the following day, the medium was carefully […]
# Doxorubicin (10 µM) and DMSO (0.01 %) were used as positive and negative controls, respectively. All the treatments used the original cell medium (RPMI or DMEM), depending on the cell line. Cells were incubated for a total of 6 days at 37 °C with the medium (treatment and controls) being replaced by a freshly prepared solution every 48 h. Then, 25 μL of XTT (with 1.25 % of PMS) was added to each well and incubated at 37 °C for 2 h. Subsequently, the absorbance was read at 650 nm and subtracted from the […]
# The resulting subtracted absorbance for each compound concentration (At) was expressed as a percentage of viable cells relative to the negative control (Ab), and the percentage of viable cells was plotted and the inhibition curves obtained by non-linear regression using the built-in log(inhibitor) vs. response-variable slope function (GraphPad® Prism, v. 5.0, San Diego, CA, US).
# . Data shown are mean ± SEM (n =
# 3/concentration) of at least 3 independent experiments. ND = not determined, no inhibition of cell
# T1 sequence (Q12809 whole entry): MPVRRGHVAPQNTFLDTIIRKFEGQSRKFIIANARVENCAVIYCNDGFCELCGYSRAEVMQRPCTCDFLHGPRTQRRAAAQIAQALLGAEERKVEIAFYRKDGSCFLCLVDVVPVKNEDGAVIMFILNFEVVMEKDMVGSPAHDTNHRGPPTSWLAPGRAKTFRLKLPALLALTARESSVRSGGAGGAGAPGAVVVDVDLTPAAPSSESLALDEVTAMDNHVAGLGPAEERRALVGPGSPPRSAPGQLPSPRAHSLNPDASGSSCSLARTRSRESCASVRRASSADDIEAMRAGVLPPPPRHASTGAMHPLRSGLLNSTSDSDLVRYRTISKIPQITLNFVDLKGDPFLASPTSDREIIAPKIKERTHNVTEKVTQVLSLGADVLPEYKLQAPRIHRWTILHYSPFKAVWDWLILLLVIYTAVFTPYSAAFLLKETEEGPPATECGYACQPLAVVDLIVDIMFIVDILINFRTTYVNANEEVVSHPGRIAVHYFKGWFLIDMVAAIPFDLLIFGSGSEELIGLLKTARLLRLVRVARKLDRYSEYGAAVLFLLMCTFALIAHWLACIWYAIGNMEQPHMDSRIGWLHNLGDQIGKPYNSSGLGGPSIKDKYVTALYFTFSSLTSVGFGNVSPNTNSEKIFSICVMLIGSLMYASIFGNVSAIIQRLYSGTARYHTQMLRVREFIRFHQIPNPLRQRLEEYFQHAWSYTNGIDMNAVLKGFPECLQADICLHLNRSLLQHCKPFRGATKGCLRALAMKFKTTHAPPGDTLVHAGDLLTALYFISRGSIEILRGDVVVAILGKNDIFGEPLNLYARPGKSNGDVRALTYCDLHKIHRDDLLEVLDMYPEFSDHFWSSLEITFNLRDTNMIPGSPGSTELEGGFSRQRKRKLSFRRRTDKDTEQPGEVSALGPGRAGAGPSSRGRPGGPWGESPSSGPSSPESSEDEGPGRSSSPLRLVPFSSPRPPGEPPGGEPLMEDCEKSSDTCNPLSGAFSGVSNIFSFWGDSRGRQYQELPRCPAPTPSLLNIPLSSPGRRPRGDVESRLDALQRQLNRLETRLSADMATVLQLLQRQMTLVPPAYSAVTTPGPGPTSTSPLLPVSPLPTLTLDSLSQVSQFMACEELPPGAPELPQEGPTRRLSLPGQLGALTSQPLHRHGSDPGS
smiles,measurement,setting,value
O=c1ccc(CN2CCN([C@H]3CC[C@@](O)(c4cccc(C(F)(F)F)c4)CC3)CC2)c[nH]1 [compound 39],hERG activity,[1],completely abolished; also recorded: suppressed hERG inhibition
same,effect on cell proliferation / cellular toxicity,[2],did not observe any significant decrease in proliferation; also recorded: does not display any measurable cellular toxicity
same,effect on cell proliferation / cellular toxicity,[2]; listed as 3OG,does not exhibit any non-specific toxicity effects
